# Entries after “also recorded” stand apart in the source; their conditions may differ.
# B1: dynI690K: dynamin mutant with defective higher order assembly of tetramers (protein)
# chain: MGNRGMEDLIPLVNRLQDAFSAIGQNADLDLPQIAVVGGQSAGKSSVLENFVGRDFLPRGSGIVTRRPLVLQLVNATTEYAEFLHCKGKKFTDFEEVRLEIEAETDRVTGTNKGISPVPINLRVYSPHVLNLTLVDLPGMTKVPVGDQPPDIEFQIRDMLMQFVTKENCLILAVSPANSDLANSDALKVAKEVDPQGQRTIGVITKLDLMDEGTDARDVLENKLLPLRRGYIGVVNRSQKDIDGKKDITAALAAERKFFLSHPSYRHLADRMGTPYLQKVLNQQLTNHIRDTLPGLRNKLQSQLLSIEKEVEEYKNFRPDDPARKTKALLQMVQQFAVDFEKRIEGSGDQIDTYELSGGARINRIFHERFPFELVKMEFDEKELRREISYAIKNIHGIRTGLFTPDMAFETIVKKQVKKIREPCLKCVDMVISELISTVRQCTKKLQQYPRLREEMERIVTTHIREREGRTKEQVMLLIDIELAYMNTNHEDFIGFANAQQRSNQMNKKKTSGNQDEILVIRKGWLTINNIGIMKGGSKEYWFVLTAENLSWYKDDEEKEKKYMLSVDNLKLRDVEKGFMSSKHIFALFNTEQRNVYKDYRQLELACETQEEVDSWKASFLRAGVYPERVGDKEKASETEENGSDSFMHSMDPQLERQVETIRNLVDSYMAIVNKTVRDLMPKTIMHLMKNNTKEFIFSELLANLYSCGDQNTLMEESAEQAQRRDEMLRMYHALKEALSIIGDINTTTVSTPMPPPVDDSWLQVQSVPAGRRSPTSSPTPQRRAPAVPPARPGSRGPAPGPPPAGSALGGAPPVPSRPGASPDPFGPPPQVPSRPNRAPPGVPSRSGQASPSRPESPRPPFDL
# Legend:
# [1] = tested on: lysosomes; test: Lysosomal leakage assay using Lucifer Yellow in podocytes; assay type: cell-based, mouse
# From the text: Next the reason for the relocalization of CatL in LPS treated podocytes was examined. To examine the possibility of lysosomal leakage, the localization of Lucifer Yellow, a cellular dye that is readily taken up into lysosomes was examined.
# [2] = molecular target: T1, cathepsin L (Homo sapiens, UniProt P07711); test: Processing of recombinant dynamin by purified CatL in vitro; assay type: biochemical
# T1 construct: purchased Sigma, Saint Louis, Mo
# T1 sequence (P07711 114-333, species assumed): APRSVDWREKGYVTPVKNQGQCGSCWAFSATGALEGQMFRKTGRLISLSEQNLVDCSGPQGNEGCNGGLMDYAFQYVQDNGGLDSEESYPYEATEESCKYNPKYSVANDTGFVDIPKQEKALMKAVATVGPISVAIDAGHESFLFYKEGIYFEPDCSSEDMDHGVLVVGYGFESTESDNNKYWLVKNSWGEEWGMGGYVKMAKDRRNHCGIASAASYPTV
# Method: Reinheckel and colleges have developed the bioinformatics tool ‘PEPS’ (Prediction of Endopeptidase Substrates) to predict endopeptidase cleavage sites. By using PEPS, three putative cathepsin L sites within dynamin were identified (FIG. 4A). To assess whether cathepsin L could cleave dynamin at neutral pH 7.0, recombinant dynamin 1 was incubated with purified cathepsin L (Stressgene) and respective proteolytic fragments were determined using anti-dynamin antibodies that recognize N-terminal GTPase domain (Stressgene). […] The most prominent proteolytic fragment traveled with molecular weight of approximately 40 kD. […] Thus, self-assembly of dynamin:GTPγS protected from cathepsin L cleavage. The middle domain and the […] mediate dynamin self-assembly into higher order structures. Based on the 3D-structure of self-assembled dynamin determined by cry-EM, the middle and the GAP domains are localized within self-assembled dynamin and thus amino acid sequences situated within either of these domains are predicted to be inaccessible for cathepsin L. Since activity of cathepsin L at pH 7.0 was marginal if GTP was not added in the assay, in order to examine whether GTPγS and thus self-assembly can protect from cathepsin L cleavage in general, assays were performed at lower pHs. As expected, at pH 5.0 and 6.0 cathepsin L potently proteolyzed recombinant dynamin (FIG. 4E). […] Thus, generation of 40 kD fragment upon addition of GTP in the assay and protection of the cleavage by GTPγS are consistent with primary cleavage site for cathepsin L to be present within the middle domain.
# GTP in vitro and in vivo. To further examine if proteolysis of dynamin by cytoplasmic CatL occurs during proteinuric kidney disease, it was examined whether purified dynamin is cleaved by CatL in vitro at neutral pH. The PEPS algorithm identified three putative CatL recognition motifs within dynamin (FIG. 19A): amino acids 55-59 (LPRGS; SEQ ID NO.28) within the GTPase domain, 354-359 (ELSGGA; SEQ ID NO.29) within the middle domain, and 614-618 (FLRAG; SEQ ID NO.30) within the pleckstrin-homology (PH) domain. […] The cleavage pattern obtained in vitro is almost identical to that observed in podocytes after addition of LPS (FIG. 18A, compare lanes 3 and 5). p40 is the predicted size of the N-terminal fragment after cleavage at the ELSGGA sequence (FIG. 19A; SEQ ID NO.29). Another fragment, p55, is observed in the absence of added protease (FIG. 19C, lane 1), likely during protein preparation. Thus, p55 is not a precursor of p40. Furthermore, incubation of dynamin with CatB generated p55 in a nucleotide-independent manner (FIG. 19F, lanes 2-4), whereas furin, another protease also found in podocytes in vivo, was unable to cleave dynamin (FIG. 19F, lanes 6-8). Thus, while p55 is produced by a number of proteases and thus represents a “hot spot” for proteolysis, p40 is generated by CatL only when dynamin is in the GTP-bound conformation.
# At pH 5.0 and 6.0, CatL was highly reactive towards recombinant dynamin, even in the absence of GTP (FIG. 19D, lanes 2 and 4).
# Recombinant dynamin was purified as described (Damke et al., 2001). 1 μg of dynamin (10 pmol) was diluted in buffer containing 200 mM NaCl, 10 mM HEPES pH 7.0, 2 mM EGTA, 1 mM MgCl2 and 1 mM DTT. When indicated 200 μM of GTP or 1 mM of GTPγS was added, and dynamin was allowed to bind nucleotides for 10 min on ice. Reaction was initiated by addition of 0.5 μl of purified CatL (S.A. 4.13 units/mg of protein from Sigma, Saint Louis, Mo.), and samples were placed at 37° C. in the water bath for 10 min. Total assay volume was 20 μl. Reaction was terminated with addition of E-64d inhibitor (Sigma, Saint Louis, Mo.), and sample buffer. For Western blot analysis 5 μl of the samples was run on 10% SDS-PAGE. When CatB (S.A. 3 units/mg of protein from Sigma, Saint Louis, Mo.) or recombinant human furin (from R&D Systems, Minneapolis, Minn.) were used, 2 μl of the enzymes were added in the assay.
# [3] = tested on: podocytes; test: Scrape wound (wound healing) assay of podocytes; assay type: cell-based, mouse; conditions: pretreatment 24 h; untreated cells 31%
# Method: Functionally, lipid raft-associated uPAR has been implicated in cell migration (21). The motility of cultured podocytes was analyzed to explore the consequences of increased uPAR expression in lipid rafts. First, podocyte cell lines were established with stable knock down of uPAR expression using siRNA. The efficiency of uPAR-siRNA was confirmed by both semi-quantitative RT-PCR (>90% inhibition) and Western blotting (>70%) (FIG. 12A). A modified multi-well Boyden chamber assay was used to assess the random migration of differentiated podocytes. […] To test whether this effect was mediated by uPAR, uPAR knock-down studies were performed by stably transfecting uPAR-siRNA into podocytes. […] The distance from the wound margin migrated by cells was related to the total distance of the scar and expressed as percentage closure 12 h after post-wound incubation. […]
# To study the directional movement of podocytes, wound healing assay was performed. […] The cell migratory distance was calculated by averaging the distance from the wound edge to the DAPI-labeled nucleus of the maximally migrated cell in five distinct border zones. The percentage of closure was calculated as migratory distance from both sides versus initial wound track width.
# [4] = tested on: dynamin-dynamin interactions; test: FLIM analysis of dynamin-dynamin interactions (self-assembly) in podocytes; assay type: cell-based, mouse; conditions: Table 4; donor GTPase-a488, acceptor Hudy1-a568; in ps
# Method: In one embodiment the cell-based assay to monitor dynamin-dynamin interactions is performed on a cultured mouse podocyte cell line and the readout of dynamin self-assembly using fluorescence lifetime imaging microscopy (FLIM). FLIM is based on the fluorescence resonance energy transfer (FRET) between the donor and acceptor that shortens the lifetime of the donor if the acceptor distance is within ≈100 Å (10 nm). […] The assay is based on overexpressing dynamin in podocytes, and subsequently staining fixed cells with monoclonal anti-dynamin antibodies that have been conjugated with donor or acceptor florophores. In one embodiment of the invention, Alexa-488 is used as the donor florophore and Alexa-568 is used as the acceptor florophore. In yet another embodiment the donor florophore is dynamin conjugated enhanced-cyan fluorescence protein (ECFP) and the acceptor is dynamin conjugated enhanced yellow-fluorescence protein (EYFP). It will be appreciated by the person of ordinary skill in the art that numerous combinations of FRET donor and acceptors can be used, which are readily available and known. In one embodiment, the FLIM assay is carried out in COS cells and the donor can be selected from the list consisting of: ECFP-WT, ECFP-1690K, ECFP-K44A, ECFP-K694A, and the -acceptor can be selected from the list consisting of: EYFP, EYFP-WT, EYFP-K44A, EYFP-1690K, EYFP-K694A. In yet another embodiment the FLIM assay is performed in podocytes and the donor is GTPase-Alexa488 and the acceptor is selected from the list consisting of: DAM-Alexa568, GTPase-Alexa568, and Hudyl-Alexa568. Cells are stained by mixing both donor and acceptor florophores in equal amounts, and examining the spatially-restricted lifetime shortening in cells detects the localization of dynamin-dynamin interactions in cells. Since dynamin-dynamin interactions are vital for the function of the podocyte, it will be appreciated by the person of ordinary skill in the art that this assay can now be used to screen peptides, small molecules or drugs which can affect these molecular interactions. For example such molecules are cytocholasin D, jasplakinolide, colchisine, dynK44A, dynK694A, dynWT, dynI690K, dynR725A (SEQ ID NO.4), dynL356Q, G358V, (SEQ ID NO.3) any combination thereof, etc.
# In order to test the hypothesis that self-assembly of dynamin was protecting its cathepsin L processing in cultured podocytes, dynamin self-assembly in live cells was examined using fluorescence lifetime imaging microscopy (FLIM). FLIM is based on the fluorescence resonance energy transfer (FRET) between the donor and the acceptor that shortens the lifetime of the donor if the acceptor distance is within ≈100 Å (10 nm). […] A FLIM-assay was developed that specifically detects dynamin self-assembly into the higher order structures in podocytes. The assay is based on overexpressing dynamin in podocytes, and subsequently staining fixed cells with monoclonal anti-dynamin antibodies that have been conjugated with either Alexa-488 (donor florophore) or Alexa-568 (acceptor florophore). Cells are stained by mixing both florophores in equal amounts, and examining lifetime of Alexa-488. […] Importantly, FRET only occurred in the vicinity of the membrane. […] Thus, both dominant activating mutants, dynK694A and dynR725A, are impaired for assembly into a supramolecular structures in podocytes under normal conditions. […] Loss of FRET measured FLIM correlates with the loss of p40 proteolytic fragment in cultured podocytes. And presence of p40 in cells expressing dynR725A under normal conditions correlates with the lack of dynR725A assembly detected by FLIM. The opposite is true for the dynWT; lack of p40 under control conditions when FLIM is present, and appearance of the p40 upon LPS treatment with no measurable FRET. […] Finally, proteolytic processing of dynamin after LPS treatment is also observed in vivo. […]
# [5] = tested on: dynamin; test: Dynamin self-assembly, apparent affinity measured in vitro; assay type: biochemical
# From the text: The fact that this significant decrease in the fluorescence lifetime of ECFP is statistically insignificant is due to high fluctuations of the lifetimes between different cells (high error bar in Table 3). This is most likely due to ability of dynK694A to overcome its assembly defect under certain circumstances as shown in vitro. The fact that ECFP-dynK694A has a faster lifetime than ECFP-dynI690K is in agreement with its less severe assembly defect measured in vitro (apparent affinity of dynK694A is ˜7-fold lower then dynWT, whereas it is unmeasurable for dynI690K).
molecule,measurement,setting,value
CCCCCCCCCCCCC/C=C/[C@@H](O)[C@@H](N)CO [sphingosine],"lysosomal integrity (Lucifer Yellow), in words",[1],led to the expected lysosomal rupture
Nc1nc2c(ncn2[C@@H]2O[C@H](COP(=O)(O)OP(=O)(O)OP(O)(O)=S)[C@@H](O)[C@H]2O)c(=O)[nH]1 [GTPγS],"cleavage of dynamin by cathepsin L, in words",[2]; acidic pH (5.0 and 6.0),completely inhibited
same,"cleavage of dynamin by cathepsin L, in words","[2]; acidic pH (5.0 and 6.0), listed as GTP7S",completely inhibited
same,"cleavage of dynamin by cathepsin L, in words","[2]; acidic pH (5.0 and 6.0), listed as GTPgammaS",protects from cathepsin L mediated cleavage
same,"cleavage of dynamin by cathepsin L, in words",[2]; pH 7.0,abolished dynamin cleavage by cathepsin L; also recorded: did not stimulate cleavage by CatL
same,"cleavage of dynamin by cathepsin L, in words","[2]; pH 7.0, listed as GTPgammaS",inhibited
Nc1nc2c(ncn2[C@@H]2O[C@H](COP(=O)(O)OP(=O)(O)OP(=O)(O)O)[C@@H](O)[C@H]2O)c(=O)[nH]1 [GTP],"cleavage of dynamin by cathepsin L, in words",[2]; pH 7.0,resulted in significant cleavage of dynamin by cathepsin L; also recorded: resulted in the generation of a prominent proteolytic fragment
"CN(C)c1ncnc2c1ncn2[C@@H]1O[C@H](CO)[C@@H](N)[C@H]1O [PAN, puromycin aminonucleoside]",percentage closure 12 h after post-wound incubation,[3],63%
B1,Mean Lifetime (γ1),[4],2359 ± 120
same,"apparent affinity for self-assembly, fold lower than dynWT",[5],unmeasurable
